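Grown in 96-well plates, cells were treated for 48 hours with each compound at five concentrations. Insufficient inhibition: endpoint recorded as highest concentration tested. GI50: concentration for 50% inhibition of growth.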 Calls of active or inactive are those of the source. Cut-off read from the data, not from the text of the source: active = GI50 up to about 1.1 µM and inactive = higher.
Key:
Test in all cases: NCI-60 cell line screen, 48 h
A498 = tested on: A498
A549 = tested on: A549
ACHN = tested on: ACHN
CAKI-1 = tested on: CAKI-1
CCRF-CEM = tested on: CCRF-CEM
COLO 205 = tested on: COLO 205
DU-145 = tested on: DU-145
EKVX = tested on: EKVX
HCC 2998 = tested on: HCC 2998
HCT-116 = tested on: HCT-116
HCT-15 = tested on: HCT-15
HL-60 = tested on: HL-60
HOP-62 = tested on: HOP-62
HT-29 = tested on: HT-29
Hs-578T = tested on: Hs-578T
IGROV-1 = tested on: IGROV-1
K562 = tested on: K562
KM12 = tested on: KM12
LOX IMVI = tested on: LOX IMVI
M14 = tested on: M14
MCF7 = tested on: MCF7
MDA-MB-231 = tested on: MDA-MB-231
MDA-MB-435 = tested on: MDA-MB-435
MDA-N = tested on: MDA-N
MOLT-4 = tested on: MOLT-4
Malme-3M = tested on: Malme-3M
NCI-H226 = tested on: NCI-H226
NCI-H23 = tested on: NCI-H23
NCI-H460 = tested on: NCI-H460
NCI-H522 = tested on: NCI-H522
NCI/ADR-RES = tested on: NCI/ADR-RES
OVCAR-3 = tested on: OVCAR-3
OVCAR-4 = tested on: OVCAR-4
OVCAR-5 = tested on: OVCAR-5
OVCAR-8 = tested on: OVCAR-8
PC-3 = tested on: PC-3
RPMI-8226 = tested on: RPMI-8226
RXF 393 = tested on: RXF 393
SF-268 = tested on: SF-268
SF-295 = tested on: SF-295
SF-539 = tested on: SF-539
SK-MEL-28 = tested on: SK-MEL-28
SK-MEL-2 = tested on: SK-MEL-2
SK-MEL-5 = tested on: SK-MEL-5
SK-OV-3 = tested on: SK-OV-3
SN12C = tested on: SN12C
SNB-19 = tested on: SNB-19
SNB-75 = tested on: SNB-75
SR = tested on: SR
SW-620 = tested on: SW-620
T47D = tested on: T47D
TK-10 = tested on: TK-10
U-251 = tested on: U-251
UACC-62 = tested on: UACC-62
UO-31 = tested on: UO-31
786-0 = tested on: 786-0
HOP-92 = tested on: HOP-92
UACC-257 = tested on: UACC-257

SMILES: COc1ccc(CN2C(=O)C(=O)N(C)C2=O)c2ccccc12
- GI50 (A498): > 10 µM (inactive)
- GI50 (A549): > 10 µM (inactive)
- GI50 (ACHN): > 10 µM (inactive)
- GI50 (CAKI-1): > 10 µM (inactive)
- GI50 (CCRF-CEM): > 10 µM (inactive)
- GI50 (COLO 205): > 10 µM (inactive)
- GI50 (DU-145): > 10 µM (inactive)
- GI50 (EKVX): > 10 µM (inactive)
- GI50 (HCC 2998): > 10 µM (inactive)
- GI50 (HCT-116): > 10 µM (inactive)
- GI50 (HCT-15): > 10 µM
- GI50 (HL-60): > 10 µM (inactive)
- GI50 (HOP-62): > 10 µM (inactive)
- GI50 (HT-29): > 10 µM (inactive)
- GI50 (Hs-578T): 1.55 µM (inactive)
- GI50 (IGROV-1): > 10 µM (inactive)
- GI50 (K562): > 10 µM (inactive)
- GI50 (KM12): > 10 µM (inactive)
- GI50 (LOX IMVI): > 10 µM (inactive)
- GI50 (M14): > 10 µM (inactive)
- GI50 (MCF7): > 10 µM (inactive)
- GI50 (MDA-MB-231): > 10 µM (inactive)
- GI50 (MDA-MB-435): > 10 µM (inactive)
- GI50 (MDA-N): 7.06 µM (inactive)
- GI50 (MOLT-4): > 10 µM (inactive)
- GI50 (Malme-3M): > 10 µM (inactive)
- GI50 (NCI-H226): > 10 µM (inactive)
- GI50 (NCI-H23): > 10 µM (inactive)
- GI50 (NCI-H460): > 10 µM (inactive)
- GI50 (NCI-H522): 9.68 µM (inactive)
- GI50 (NCI/ADR-RES): > 10 µM (inactive)
- GI50 (OVCAR-3): > 10 µM (inactive)
- GI50 (OVCAR-4): > 10 µM (inactive)
- GI50 (OVCAR-5): > 10 µM (inactive)
- GI50 (OVCAR-8): > 10 µM (inactive)
- GI50 (PC-3): > 10 µM (inactive)
- GI50 (RPMI-8226): > 10 µM (inactive)
- GI50 (RXF 393): > 10 µM (inactive)
- GI50 (SF-268): > 10 µM (inactive)
- GI50 (SF-295): > 10 µM (inactive)
- GI50 (SF-539): > 10 µM (inactive)
- GI50 (SK-MEL-28): > 10 µM (inactive)
- GI50 (SK-MEL-2): > 10 µM (inactive)
- GI50 (SK-MEL-5): > 10 µM (inactive)
- GI50 (SK-OV-3): > 10 µM (inactive)
- GI50 (SN12C): > 10 µM (inactive)
- GI50 (SNB-19): > 10 µM (inactive)
- GI50 (SNB-75): > 10 µM (inactive)
- GI50 (SR): > 10 µM (inactive)
- GI50 (SW-620): > 10 µM (inactive)
- GI50 (T47D): > 10 µM (inactive)
- GI50 (TK-10): > 10 µM (inactive)
- GI50 (U-251): > 10 µM (inactive)
- GI50 (UACC-62): > 10 µM (inactive)
- GI50 (UO-31): > 10 µM (inactive)

SMILES: O=C1NC(Nc2ccccc2)=NC(C(F)(F)F)(C(F)(F)F)N1
- GI50 (786-0): 39.1 µM (inactive)
- GI50 (A549): 40.9 µM (inactive)
- GI50 (ACHN): 35.1 µM (inactive)
- GI50 (CCRF-CEM): 48.6 µM (inactive)
- GI50 (COLO 205): 33.4 µM (inactive)
- GI50 (DU-145): 35.9 µM (inactive)
- GI50 (EKVX): 38.4 µM (inactive)
- GI50 (HCC 2998): 46.7 µM (inactive)
- GI50 (HCT-116): 34.6 µM (inactive)
- GI50 (HCT-15): 51.1 µM
- GI50 (HL-60): 31.6 µM (inactive)
- GI50 (HOP-62): 53.3 µM (inactive)
- GI50 (HOP-92): 20.7 µM (inactive)
- GI50 (HT-29): 56.2 µM (inactive)
- GI50 (Hs-578T): 55.3 µM (inactive)
- GI50 (IGROV-1): 54 µM (inactive)
- GI50 (K562): 49.3 µM (inactive)
- GI50 (KM12): 41.6 µM (inactive)
- GI50 (LOX IMVI): 37.2 µM (inactive)
- GI50 (M14): 21.4 µM (inactive)
- GI50 (MCF7): 37.9 µM (inactive)
- GI50 (MDA-MB-231): 57.1 µM (inactive)
- GI50 (MDA-MB-435): 43 µM (inactive)
- GI50 (MDA-N): 25.1 µM (inactive)
- GI50 (MOLT-4): 54.5 µM (inactive)
- GI50 (Malme-3M): 30.1 µM (inactive)
- GI50 (NCI-H226): 41.1 µM (inactive)
- GI50 (NCI-H23): 23.4 µM (inactive)
- GI50 (NCI-H460): 32.8 µM (inactive)
- GI50 (NCI/ADR-RES): 71.1 µM (inactive)
- GI50 (OVCAR-3): 37.9 µM (inactive)
- GI50 (OVCAR-4): 39.6 µM (inactive)
- GI50 (OVCAR-5): 42.8 µM (inactive)
- GI50 (OVCAR-8): 40.2 µM (inactive)
- GI50 (PC-3): 20.5 µM (inactive)
- GI50 (RPMI-8226): 34.1 µM (inactive)
- GI50 (SF-268): 39.8 µM (inactive)
- GI50 (SF-295): 37 µM (inactive)
- GI50 (SF-539): 74.5 µM (inactive)
- GI50 (SK-MEL-28): 47.2 µM (inactive)
- GI50 (SK-MEL-2): 19.9 µM (inactive)
- GI50 (SK-MEL-5): 25.1 µM (inactive)
- GI50 (SK-OV-3): 64 µM (inactive)
- GI50 (SN12C): 36.6 µM (inactive)
- GI50 (SNB-75): 11.5 µM (inactive)
- GI50 (SR): 40.1 µM (inactive)
- GI50 (SW-620): 71.8 µM (inactive)
- GI50 (T47D): 36.4 µM (inactive)
- GI50 (TK-10): 68.4 µM (inactive)
- GI50 (U-251): 27.9 µM (inactive)
- GI50 (UACC-257): 59.7 µM (inactive)
- GI50 (UACC-62): 50.4 µM (inactive)
- GI50 (UO-31): 30.8 µM (inactive)

SMILES: CCOC(=O)c1nc(SC)sc1NC(=O)c1ccc(OC)cc1
- GI50 (786-0): 20.5 µM (inactive)
- GI50 (A498): 15.8 µM (inactive)
- GI50 (A549): 29.7 µM (inactive)
- GI50 (ACHN): 47.8 µM (inactive)
- GI50 (CAKI-1): > 100 µM (inactive)
- GI50 (CCRF-CEM): > 100 µM (inactive)
- GI50 (COLO 205): 28.8 µM (inactive)
- GI50 (DU-145): > 100 µM (inactive)
- GI50 (EKVX): > 100 µM (inactive)
- GI50 (HCC 2998): 43.6 µM (inactive)
- GI50 (HCT-116): 19.5 µM (inactive)
- GI50 (HCT-15): > 100 µM
- GI50 (HL-60): > 100 µM (inactive)
- GI50 (HOP-62): 34.7 µM (inactive)
- GI50 (HOP-92): > 100 µM (inactive)
- GI50 (HT-29): 66.2 µM (inactive)
- GI50 (Hs-578T): > 100 µM (inactive)
- GI50 (IGROV-1): > 100 µM (inactive)
- GI50 (K562): > 100 µM (inactive)
- GI50 (KM12): > 100 µM (inactive)
- GI50 (LOX IMVI): > 100 µM (inactive)
- GI50 (M14): > 100 µM (inactive)
- GI50 (MCF7): 46.5 µM (inactive)
- GI50 (MDA-MB-231): 35.2 µM (inactive)
- GI50 (MDA-MB-435): > 100 µM (inactive)
- GI50 (MDA-N): > 100 µM (inactive)
- GI50 (MOLT-4): > 100 µM (inactive)
- GI50 (Malme-3M): 35.3 µM (inactive)
- GI50 (NCI-H226): 28.1 µM (inactive)
- GI50 (NCI-H23): > 100 µM (inactive)
- GI50 (NCI-H460): 35.6 µM (inactive)
- GI50 (NCI-H522): > 100 µM (inactive)
- GI50 (NCI/ADR-RES): > 100 µM (inactive)
- GI50 (OVCAR-3): > 100 µM (inactive)
- GI50 (OVCAR-4): 29.2 µM (inactive)
- GI50 (OVCAR-5): > 100 µM (inactive)
- GI50 (OVCAR-8): 58.7 µM (inactive)
- GI50 (PC-3): > 100 µM (inactive)
- GI50 (RPMI-8226): > 100 µM (inactive)
- GI50 (RXF 393): 33.4 µM (inactive)
- GI50 (SF-268): > 100 µM (inactive)
- GI50 (SF-295): > 100 µM (inactive)
- GI50 (SF-539): 16.4 µM (inactive)
- GI50 (SK-MEL-28): 75 µM (inactive)
- GI50 (SK-MEL-2): > 100 µM (inactive)
- GI50 (SK-MEL-5): > 100 µM (inactive)
- GI50 (SK-OV-3): 63.1 µM (inactive)
- GI50 (SN12C): 37.9 µM (inactive)
- GI50 (SNB-19): 75.7 µM (inactive)
- GI50 (SW-620): 49.1 µM (inactive)
- GI50 (T47D): 98.2 µM (inactive)
- GI50 (TK-10): 21.1 µM (inactive)
- GI50 (U-251): 23.9 µM (inactive)
- GI50 (UACC-257): > 100 µM (inactive)
- GI50 (UACC-62): > 100 µM (inactive)
- GI50 (UO-31): > 100 µM (inactive)

From ChEMBL document CHEMBL1201862, “PubChem BioAssay data set” (2004)
